Data as given in patent US11524010B2, “Substituted quinazoline sulfonamides as thioredoxin interacting protein (TXNIP) inhibitors” (SOUTHERN RESEARCH INSTITUTE, priority 2017, dated 2022).

Legend:
[1] = system: TXNIP; assay: Inhibition of glucose-induced endogenous TXNIP expression in INS-1 cells (qRT-PCR); format: cell-based, Rat; conditions: 25 mM glucose; for inhibition at 1.5 µM / inhibition at 12.5 µM: Rattus norvegicus, INS1, 24 h
Description: The Rat INS-1 cell line was obtained from UAB and maintained in RPMI-1640 (Invitrogen #11875) supplemented with 10% fetal bovine serum (FBS), 100 U/ml penicillin and […] streptomycin, 10 mM HEPES, 1 mM Sodium Pyruvate, 50 μM 2-Mercaptoethanol, and 11.1 mM Glucose in a humidified incubator with a 5% C02 atmosphere at 37° C. 4×10^4 cells per well were seeded to 96-well plate and incubated at 37° C. overnight. A subset of the cells were then cultured in medium with 5 mM Glucose for 24 hrs and then treated in medium with 25 mM glucose with or without compounds to be tested for another 24 hrs.
For the primary high throughput screening (HTS) assay, stably transfected, monoclonal INS-1 cells were split using Trypsin (2 ml per T75 flask) and seeded at a density of 10^4/well in a 384-well plate and incubated overnight at low, 5 mM glucose. The next day, the medium was changed to high glucose (25 mM) or high glucose plus the small molecules to be tested and luciferase assays were performed 24 h later. […] For secondary screens, total RNA was extracted from 96-well cultured cells using RNeasy 96 kit (Qiagen #74181) following the manufacturer's protocol using spin technology. Then a one-step qRT-PCR amplification was performed using QuantiFast SYBR Green RT-PCR kit (Qiagen #204154) and was carried out in a 10 μl reaction which consisted of 2 μl RNA, 0.5 μM each of primers (Rat TXNIP 5′ primer: […] (SEQ ID NO:1) and Rat TXNIP 3′ primer: […] (SEQ ID NO:2); Or Rat 18S rRNA 5′ primer: […] (SEQ ID NO:3) and Rat 18S rRNA 3′ primer: […]) (SEQ ID NO:4), 5 μl 2×SYBR Green Master Mix, 0.1 μl 10× QuantiFast RT Mix. The SYBR Green assay was performed using a LightCycler 480 II (Roche Applied Science) with an initial incubation at 50° C. for 10 min for RT followed by denaturation at 95° C. for 5 min. Forty cycles of amplification were performed using a thermal cycling profile of 95° C. for 10s, 60° C. for 30 s. Subsequently, a melting curve was recorded by holding at 95° C. for 60 s, cooling to 60° C. for 60 s, and then heating at 0.11° C./s up to 95° C. The data was collected and analyzed using the LightCycler 480 Software Release 1.5.0 SP3. The relative amount of TXNIP mRNA was normalized to 18 s rRNA level as a housekeeping gene, and the data was analyzed according to the 2^−ΔΔCT method (1). The transformed data was expressed as % inhibition and compound IC50 calculated by a 4-parameter logistic fit of the data using GraphPad Prism 7.

[2] = INS-1 cell viability (Cell Titer-Glo, ATP); format: cell-based, Rat; conditions: rat, INS-1 cells, 72 hrs treatment
Description: INS-1 cell viability was determined based on quantification of ATP using Cell Titer-Glo Luminescent Cell Viability Assay kit (Promega #G7572), which indicates the presence of metabolically active cells. Briefly, INS-1 cells were seeded into 96-well plates at a cell density of 4.5×10^4 and 3.5×10^4 cells per well and incubated overnight at 37° C. with 5% CO2. On the following day, cells were treated with compounds for 24 hrs and 72 hrs respectively. Cell Titer-Glo reagent was added to the cells and Luminescence was acquired on Synergy 4 Reader ([…]).

In the case of `CS(=O)(=O)NCC1CCCN(c2ncnc3cccc(F)c23)C1` (centres unmarked) [Compound 2, N-((1-(5-fluoroquinazolin-4-yl)piperidin-3-yl)methyl)methanesulfonamide], the inhibition at 1.5 µM ([1]; 1.5 μM compound) was 13%, the inhibition at 12.5 µM ([1]; 12.5 μM compound) was 61% and the CC50 at 72 h [2] was > 100 µM.

In the case of `CS(=O)(=O)NC1CCCN(c2ncnc3cc(F)c(C(F)(F)F)cc23)C1` (centres unmarked) [Compound 39, N-(1-(7-fluoro-6-(trifluoromethyl)quinazolin-4-yl)piperidin-3-yl)methanesulfonamide], the inhibition at 1.5 µM ([1]; 1.5 μM compound) was 7%, the inhibition at 12.5 µM ([1]; 12.5 μM compound) was 28% and the CC50 at 72 h [2] was > 100 µM.

For `CS(=O)(=O)NCC1CCCN(c2ncnc3cc(C(N)=O)c(F)cc23)C1` (centres unmarked) [Compound 21, 6-fluoro-4-(3-(methylsulfonamidomethyl)piperidin-1-yl)quinazoline-7-carboxamide], the inhibition at 1.5 µM ([1]; 1.5 μM compound) was 0%, the inhibition at 12.5 µM ([1]; 12.5 μM compound) was 12% and the CC50 at 72 h [2] was > 100 µM.

For `CC(C)(C)C(=O)Nc1ccc2ncnc(N3CCCC(CNS(C)(=O)=O)C3)c2c1` (centres unmarked) [Compound 25, N-(4-(3-(methylsulfonamidomethyl)piperidin-1-yl)quinazolin-6-yl)pivalamide], the inhibition at 1.5 µM ([1]; 1.5 μM compound) was 28%, the inhibition at 12.5 µM ([1]; 12.5 μM compound) was 51% and the CC50 at 72 h [2] was > 100 µM.

For `NC(=O)c1cc2ncnc(N3CCCC(CNS(=O)(=O)C4CC4)C3)c2cc1F` (centres unmarked) [Compound 59, 4-(3-(cyclopropanesulfonamidomethyl)piperidin-1-yl)-6-fluoroquinazoline-7-carboxamide], the inhibition at 1.5 µM ([1]; 1.5 μM compound) was 5%, the inhibition at 12.5 µM ([1]; 12.5 μM compound) was 5% and the CC50 at 72 h [2] was > 100 µM.

With `CS(=O)(=O)NCC1CCCN(c2ncnc3cc(F)c(C#N)cc23)C1` (centres unmarked) [Compound 29, N-((1-(6-cyano-7-fluoroquinazolin-4-yl)piperidin-3-yl)methyl)methanesulfonamide] the inhibition at 1.5 µM ([1]; 1.5 μM compound) was 39%, the inhibition at 12.5 µM ([1]; 12.5 μM compound) was 66% and the CC50 at 72 h [2] was > 100 µM.

For `CC(C)c1nc(N2CCCC(CNS(C)(=O)=O)C2)c2ccccc2n1` (centres unmarked) [Compound 15, N-((1-(2-isopropylquinazolin-4-yl)piperidin-3-yl)methyl)methanesulfonamide], the inhibition at 1.5 µM ([1]; 1.5 μM compound) was 0%, the inhibition at 12.5 µM ([1]; 12.5 μM compound) was 20% and the CC50 at 72 h [2] was 73 µM.

For `CS(=O)(=O)NCC1CCCN(c2ncnc3ccc(-c4ncco4)cc23)C1` (centres unmarked) [Compound 26, N-((1-(6-(oxazol-2-yl)quinazolin-4-yl)piperidin-3-yl)methyl)methanesulfonamide], the inhibition at 1.5 µM ([1]; 1.5 μM compound) was 2%, the inhibition at 12.5 µM ([1]; 12.5 μM compound) was 28% and the CC50 at 72 h [2] was > 100 µM.

For `CS(=O)(=O)NC1CCCN(c2ncnc3ccccc23)C1` (centres unmarked) [Compound 31, N-(1-(quinazolin-4-yl)piperidin-3-yl)methanesulfonamide], the inhibition at 1.5 µM ([1]; 1.5 μM compound) was 17%, the inhibition at 12.5 µM ([1]; 12.5 μM compound) was 82% and the CC50 at 72 h [2] was 67 µM.

In the case of `O=S(=O)(NCC1CCCN(c2ncnc3ccc(F)cc23)C1)N1CCOCC1` (centres unmarked) [Compound 60, N-((1-(6-fluoroquinazolin-4-yl)piperidin-3-yl)methyl)morpholine-4-sulfonamide], the inhibition at 1.5 µM ([1]; 1.5 μM compound) was 32%, the inhibition at 12.5 µM ([1]; 12.5 μM compound) was 56% and the CC50 at 72 h [2] was 16 µM.

For `CS(=O)(=O)NCC1CCCN(c2nc(N3CCOCC3)nc3ccccc23)C1` (centres unmarked) [Compound 17, N-((1-(2-morpholinoquinazolin-4-yl)piperidin-3-yl)methyl)methanesulfonamide], the inhibition at 1.5 µM ([1]; 1.5 μM compound) was 0%, the inhibition at 12.5 µM ([1]; 12.5 μM compound) was 15% and the CC50 at 72 h [2] was > 100 µM.

In the case of `COc1cc2ncnc(N3CCCC(CNS(C)(=O)=O)C3)c2cc1OC` (centres unmarked) [Compound 8, N-((1-(6,7-dimethoxyquinazolin-4-yl)piperidin-3-yl)methyl)methanesulfonamide], the inhibition at 1.5 µM ([1]; 1.5 μM compound) was 0%, the inhibition at 12.5 µM ([1]; 12.5 μM compound) was 7% and the CC50 at 72 h [2] was > 100 µM.

`CS(=O)(=O)NC1CCCN(c2ncnc3cc(F)c(F)cc23)C1` (centres unmarked) [Compound 33, N-(1-(6,7-difluoroquinazolin-4-yl)piperidin-3-yl)methanesulfonamide] gave an inhibition at 1.5 µM ([1]; 1.5 μM compound) of 29%, an inhibition at 12.5 µM ([1]; 12.5 μM compound) of 68% and a CC50 at 72 h [2] of 68 µM.

`O=S(=O)(NCC1CCCN(c2ncnc3ccc(C(F)(F)F)cc23)C1)C1CC1` (centres unmarked) [Compound 57, N-((1-(6-(trifluoromethyl)quinazolin-4-yl)piperidin-3-yl)methyl)cyclopropanesulfonamide] gave an inhibition at 1.5 µM ([1]; 1.5 μM compound) of 33%, an inhibition at 12.5 µM ([1]; 12.5 μM compound) of 67% and a CC50 at 72 h [2] of 43 µM.

For `CS(=O)(=O)NCC1CCCN(c2nc[n+]([O-])c3ccc(C(F)(F)F)cc23)C1` (centres unmarked) [Compound 61, 4-(3-(methylsulfonamidomethyl)piperidin-1-yl)-6-(trifluoromethyl)quinazoline 1-oxide], the inhibition at 1.5 µM ([1]; 1.5 μM compound) was 2%, the inhibition at 12.5 µM ([1]; 12.5 μM compound) was 25% and the CC50 at 72 h [2] was > 100 µM.

In the case of `COc1ccc2ncnc(N3CCCC(CNS(C)(=O)=O)C3)c2c1` (centres unmarked) [Compound 5, N-((1-(6-methoxyquinazolin-4-yl)piperidin-3-yl)methyl)methanesulfonamide], the inhibition at 1.5 µM ([1]; 1.5 μM compound) was 30%, the inhibition at 12.5 µM ([1]; 12.5 μM compound) was 58% and the CC50 at 72 h [2] was > 100 µM.

For `O=S(=O)(NCC1CCCN(c2ncnc3ccc(C(F)(F)F)cc23)C1)c1ccccc1` (centres unmarked) [Compound 54, N-((1-(6-(trifluoromethyl)quinazolin-4-yl)piperidin-3-yl)methyl)benzenesulfonamide], the inhibition at 1.5 µM ([1]; 1.5 μM compound) was 19%, the inhibition at 12.5 µM ([1]; 12.5 μM compound) was 53% and the CC50 at 72 h [2] was 17 µM.

For `CC1(CNS(C)(=O)=O)CCCN(c2ncnc3cc(F)c(C#N)cc23)C1` (centres unmarked) [Compound 48], the inhibition at 1.5 µM ([1]; 1.5 μM compound) was 3%, the inhibition at 12.5 µM ([1]; 12.5 μM compound) was 26% and the CC50 at 72 h [2] was > 100 µM.

With `CS(=O)(=O)NCC1CCCN(c2ncnc3cc(O)c(C(F)(F)F)cc23)C1` (centres unmarked) [Compound 63, N-((1-(7-hydroxy-6-(trifluoromethyl)quinazolin-4-yl)piperidin-3-yl)methyl)methanesulfonamide] the inhibition at 1.5 µM ([1]; 1.5 μM compound) was 10%, the inhibition at 12.5 µM ([1]; 12.5 μM compound) was 5% and the CC50 at 72 h [2] was > 100 µM.

Work on `CS(=O)(=O)NC1CCCN(c2ncnc3cc(C#N)c(F)cc23)C1` (centres unmarked) [Compound 36, N-(1-(7-cyano-6-fluoroquinazolin-4-yl)piperidin-3-yl)methanesulfonamide] yielded an inhibition at 1.5 µM ([1]; 1.5 μM compound) of 0%, an inhibition at 12.5 µM ([1]; 12.5 μM compound) of 34% and a CC50 at 72 h [2] of 35 µM.

With `CS(=O)(=O)NC1CCCN(c2ncnc3cc(F)ccc23)C1` (centres unmarked) [Compound 32, N-(1-(7-fluoroquinazolin-4-yl)piperidin-3-yl)methanesulfonamide] the inhibition at 1.5 µM ([1]; 1.5 μM compound) was 21%, the inhibition at 12.5 µM ([1]; 12.5 μM compound) was 62% and the CC50 at 72 h [2] was 65 µM.

In the case of `CS(=O)(=O)NCC1CCCN(c2ncnc3c(F)cccc23)C1` (centres unmarked) [Compound 3, N-((1-(8-fluoroquinazolin-4-yl)piperidin-3-yl)methyl)methanesulfonamide], the inhibition at 1.5 µM ([1]; 1.5 μM compound) was 4%, the inhibition at 12.5 µM ([1]; 12.5 μM compound) was 59% and the CC50 at 72 h [2] was > 100 µM.

With `CS(=O)(=O)NC1CCCN(c2ncnc3cc(F)c(C#N)cc23)C1` (centres unmarked) [Compound 37, N-(1-(6-cyano-7-fluoroquinazolin-4-yl)piperidin-3-yl)methanesulfonamide] the inhibition at 1.5 µM ([1]; 1.5 μM compound) was 0%, the inhibition at 12.5 µM ([1]; 12.5 μM compound) was 24% and the CC50 at 72 h [2] was > 100 µM.

With `CS(=O)(=O)NCC1CCCN(c2ncnc3ccc(-c4ccccn4)cc23)C1` (centres unmarked) [Compound 27, N-((1-(6-(pyridin-2-yl)quinazolin-4-yl)piperidin-3-yl)methyl)methanesulfonamide] the inhibition at 1.5 µM ([1]; 1.5 μM compound) was 9%, the inhibition at 12.5 µM ([1]; 12.5 μM compound) was 4% and the CC50 at 72 h [2] was 70 µM.

With `CS(=O)(=O)NCC1CCCN(c2ncnc3ccc(N4CCOCC4)cc23)C1` (centres unmarked) [Compound 24, N-((1-(6-morpholinoquinazolin-4-yl)piperidin-3-yl)methyl)methanesulfonamide] the inhibition at 1.5 µM ([1]; 1.5 μM compound) was 20%, the inhibition at 12.5 µM ([1]; 12.5 μM compound) was 20% and the CC50 at 72 h [2] was > 100 µM.

For `CS(=O)(=O)NCC1CCCN(c2ncnc3cc(F)c(C#N)cc23)C1.Cl` (centres unmarked) [Compound 29a, N-((1-(6-cyano-7-fluoroquinazolin-4-yl)piperidin-3-yl)methyl)methanesulfonamide hydrochloride], the “TXNIP % Inhibition at 1.5 μM” value ([1]; 1.5 μM compound, 24 hrs) was 35% and the “TXNIP % Inhibition at 12.5 μM” value ([1]; 12.5 μM compound, 24 hrs) was 55%.
